Experimental findings from patent publication US20180116220A1, “NOVEL TRIAZOLE DERIVATIVES” (BAYER CROPSCIENCE AKTIENGESELLSCHAFT, priority 2015, published 2018) are described below.

Marks after values point to notes of the source that are not given here.

The nature of data set [1]: LogP by HPLC on reversed phase columns (EEC directive 79/831 Annex V.A8). The format is physicochemical. The note with it: for chromatographic logP: reversed phase HPLC column. The procedure:
[table] If more than one LogP value is available within the same method, all the values are given and separated by “+”. […] Lambda-max-values were determined using UV-spectra from 200 nm to 400 nm and the peak values of the chromatographic signals. Measurement of LogP values was performed as outlined above.

In the next data set the test system is Phakopsora pachyrhizi. Kind of data set: Example S: in vivo preventive Phakopsora test (soybeans); comparison vs. known compounds. Particulars: rate of application 5 ppm, evaluated 7 days after inoculation. The procedure: The test is evaluated 7 days after the inoculation.
Another data set concerns Venturia inaequalis. Put plainly: Example R: in vivo preventive Venturia test (apples); comparison vs. known compounds. The note with it: rate of application 10 ppm, evaluated 10 days after inoculation.
The mark [2] stands for this setting: [a] LC-UV, acidic range, 0.1% formic acid in water and acetonitrile as eluent.
The mark [3] stands for this setting: [b] LC-UV, neutral range, 0.001 molar ammonium acetate solution in water and acetonitrile as eluent.

Experimental for Venturia inaequalis: • Solvent: 24.5 parts by weight of acetone • 24.5 parts by weight of dimethylacetamide • Emulsifier: 1 part by weight of alkylaryl polyglycol ether
After the spray coating has dried on, the plants are inoculated with an aqueous conidia suspension of the causal agent of apple scab (Venturia inaequalis) and then remain for 1 day in an incubation cabinet at approximately 20° C. and a relative atmospheric humidity of 100%.
The plants are then placed in a greenhouse at approximately 21° C. and a relative atmospheric humidity of approximately 90%.
The test is evaluated 10 days after the inoculation.

In turn, `OC(Cn1cncn1)(c1ccc(F)cc1F)C1(Oc2ccc(Cl)cc2)CC1` (stereo not drawn) [Example I-10, 1-[1-(4-chlorophenoxy)cyclopropyl]-1-(2,4-difluorophenyl)-2-(1H-1,2,4-triazol-1-yl)ethanol] had a chromatographic logP in data set [1] (setting [2]) of 3.48. The Efficacy in % in the data set with Phakopsora pachyrhizi worked out at 95%; in the data set on Venturia inaequalis, 100%. Take `N#Cc1cc(I)ccc1OC1(C2(c3ccc(F)cc3F)CO2)CC1` (stereo not drawn) [Example V-13]: the lipophilicity (LogP) in data set [1] (setting [2]) turned out to be 4.14; in data set [1] (setting [3]) it was 4.21. For `Cc1cc(Br)ccc1OC1(C2(c3ccc(F)cc3F)CO2)CC1` (stereo not drawn) [Example V-14] the same measures were 5.25^[a]; 5.25^[b] and 5.25^[a]; 5.25^[b].

In the case of `Fc1ccc(C2(C3(Oc4ccc(OC(F)(F)F)cc4)CC3)CO2)c(F)c1` (stereo not drawn) [Example V-15], the results for the LogP in data set [1] (setting [2]) and in data set [1] (setting [3]) were 4.70 and 4.86, respectively. For `Fc1ccc(C2(C3(Oc4ccc(SC(F)(F)F)cc4)CC3)CO2)c(F)c1` (stereo not drawn) [Example V-16] the same measures were 5.23 and 5.24. Regarding `Fc1ccc(OC2(C3(c4ccc(Cl)cc4F)CO3)CC2)c(F)c1` (stereo not drawn) [Example V-17], the LogP in data set [1] (setting [2]) was 4.56^[a].

Consider `Fc1ccc(C2(C3(Oc4c(F)cccc4F)CC3)CO2)c(F)c1` (stereo not drawn) [Example V-18], for which the LogP in data set [1] (setting [2]) was 4.11^[a]. The same measure, in the same setting: in the case of `Fc1ccc(C2(C3(Oc4c(Cl)cccc4Cl)CC3)CO2)c(F)c1` (stereo not drawn) [Example V-19] it was 4.80^[a]; in that of `Fc1ccc(C2(C3(Oc4c(F)cccc4Cl)CC3)CO2)c(F)c1` (stereo not drawn) [Example V-20], 4.49^[a]. The same measure, in the same setting: the result for `Fc1ccc(C2(C3(Oc4c(F)cccc4Br)CC3)CO2)c(F)c1` (stereo not drawn) [Example V-21] reads 4.59^[a]. `O=C(c1ccc(F)cc1F)C1(Oc2ccc(Br)cc2)CC1` [IV-1, [1-(4-bromophenoxy)cyclopropyl](2,4-difluorophenyl)methanone] yielded a chromatographic logP in data set [1] (setting [2]) of 4.32. Take `O=C(c1ccc(F)cc1F)C1(Oc2ccc(Cl)cc2)CC1` [IV-2]: the LogP in data set [1] (setting [2]) was 4.22^[a]. Take `O=C(c1ccc(F)cc1F)C1(Oc2ccc(Cl)cc2F)CC1` [IV-3]: the results for the LogP in data set [1] (setting [2]) and in data set [1] (setting [3]) were 4.23 and 4.24, respectively. In the case of `O=C(c1ccc(F)cc1F)C1(Oc2ccc(F)cc2Cl)CC1` [IV-4], the LogP in data set [1] (setting [2]) and in data set [1] (setting [3]) was 4.21^[a]; 4.21^[b] in each case. In the case of `O=C(c1ccc(F)cc1F)C1(Oc2ccccc2F)CC1` [IV-5], in data set [1] (setting [2]), the LogP is 3.73^[a].

With `O=C(c1ccc(F)cc1F)C1(Oc2ccccc2Br)CC1` [IV-6], the results for the LogP in data set [1] (setting [2]) and in data set [1] (setting [3]) were 4.14 and 4.19, respectively. For `O=C(c1ccc(F)cc1F)C1(Oc2cccc(Br)c2)CC1` [IV-7] the same measures were 4.32 and 4.36. As for `O=C(c1ccc(F)cc1F)C1(Oc2ccccc2I)CC1` [IV-8], the LogP in data set [1] (setting [2]) is 4.35; in data set [1] (setting [3]), 4.40. For `O=C(c1ccc(F)cc1F)C1(Oc2cccc(I)c2)CC1` [IV-9] the same measures were 4.50 and 4.53.

With `O=C(c1ccc(F)cc1F)C1(Oc2ccc(I)cc2)CC1` [IV-10], the log partition coefficient (LogP) in data set [1] (setting [2]) is 4.54; in data set [1] (setting [3]), 4.57.

On to `O=C(c1ccc(F)cc1F)C1(Oc2ccc(Br)cc2F)CC1` [IV-11], for which the log partition coefficient (LogP) in data set [1] (setting [2]) worked out at 4.33; in data set [1] (setting [3]) it was 4.36.

As for `Cc1cc(I)ccc1OC1(C(=O)c2ccc(F)cc2F)CC1` [IV-12], the values for the LogP in data set [1] (setting [2]) and in data set [1] (setting [3]) were 5.06 and 5.08, respectively.

Consider `N#Cc1cc(I)ccc1OC1(C(=O)c2ccc(F)cc2F)CC1` [IV-13], for which the lipophilicity (LogP) in data set [1] (setting [2]) worked out at 3.90; in data set [1] (setting [3]), 3.92. For `Cc1cc(Br)ccc1OC1(C(=O)c2ccc(F)cc2F)CC1` [IV-14] the same measures were 4.88 and 4.87. For `O=C(c1ccc(F)cc1F)C1(Oc2ccc(OC(F)(F)F)cc2)CC1` [IV-15] the same measures were 4.49 and 4.53. For `O=C(c1ccc(F)cc1F)C1(Oc2ccc(SC(F)(F)F)cc2)CC1` [IV-16] the same measures were 4.86 and 4.92. Turning to `O=C(c1ccc(F)cc1F)C1(Oc2c(F)cccc2F)CC1` [IV-17], the LogP in data set [1] (setting [2]) is 3.87^[a].

With `O=C(c1ccc(F)cc1F)C1(Oc2c(Cl)cccc2Cl)CC1` [IV-18], the LogP in data set [1] (setting [2]) is 4.59^[a]. Still for that read-out and setting: the result for `O=C(c1ccc(F)cc1F)C1(Oc2c(F)cccc2Cl)CC1` [IV-19] reads 4.26^[a]; that for `O=C(c1ccc(F)cc1F)C1(Oc2c(F)cccc2Br)CC1` [IV-20], 4.34^[a]; that for `O=C(c1ccc(Cl)cc1F)C1(Oc2ccc(Cl)cc2)CC1` [IV-21], 4.75^[a]. Regarding `O=C(c1ccc(Cl)cc1F)C1(Oc2ccc(Cl)cc2F)CC1` [IV-22], the LogP in data set [1] (setting [2]) is 4.72^[a]. Take `O=C(c1ccc(F)cc1F)C1(Oc2ccc(C(F)(F)F)cc2)CC1` [IV-23]: the lipophilicity (LogP) in data set [1] (setting [2]) is 4.44^[a]. On the same count and under the same terms, in the case of `O=C(c1ccc(F)cc1F)C1(Oc2cccc(Cl)c2)CC1` [IV-24] it was 4.34^[a]. Still for that read-out and setting: in the case of `O=C(c1ccc(F)cc1F)C1(Oc2ccc(Cl)c(F)c2)CC1` [IV-25] it was 4.41^[a]; in that of `O=C(c1ccc(F)cc1F)C1(Oc2ccc(Br)c(F)c2)CC1` [IV-26], 3.99^[a]. Still for that read-out and setting: the result for `O=C(c1ccc(F)cc1F)C1(Oc2ccc(OC(F)F)cc2)CC1` [IV-27] reads 3.94^[a].

For the compound `O=C(c1ccc(F)cc1F)C1(Oc2cccc(Cl)c2F)CC1` [IV-28], the lipophilicity (LogP) in data set [1] (setting [2]) is 4.21^[a].
